ChEMBL document CHEMBL4840358, “Discovery of Modified Amidate (ProTide) Prodrugs of Tenofovir with Enhanced Antiviral Properties” (J Med Chem, 2021)

Key:
[1] = test system: Human immunodeficiency virus 1; experiment: Antiviral activity against HIV-1 infected in MT4 cells assessed as reduction in virus-induced cytopathic effect preincubated for 1 hr followed by viral infection and measured after 5 days by XTT assay; assay type: functional, organism-based; settings: Human immunodeficiency virus 1, MT4
[2] = Cytotoxicity against in human MT4 cells after 5 days by XTT assay; assay type: cell-based; settings: time 5 day
[3] = Selectivity index, ratio of CC50 for human MT-4 cells to EC50 for HIV-1 infected in MT-4 cells; assay type: toxicity, cell-based; settings: read-out: Ratio CC50/EC50
[4] = test system: Hepatitis B virus; experiment: Antiviral activity against HBV infected in human HepG2-hNTCP cells assessed as reduction in HBV DNA incubated for day 1 followed by compound washout and fresh compound addition on following day and day 3, 6 and 10 measured on day 14 post infection by qPCR analysis; assay type: functional, organism-based
[5] = Cytotoxicity against human HepG2-hNTCP cells incubated for 3 days by XTT assay; assay type: cell-based; settings: time 3 day

Compound | EC50 [1] [nM] | CC50 at 120 h [2] [nM] | selectivity ratio [3] | EC50 [4] [nM] | CC50 at 72 h [5] [nM]
CC(C)OC(=O)[C@H](C)N[P@](=O)(CO[C@H](C)Cn1cnc2c(N)ncnc21)Oc1ccc(C[C@@H](NC(=O)OCc2ccccc2)C(=O)OC2CCCC2)cc1 | 0.67 | 20000 | – | – | –
COC(=O)[C@H](Cc1ccc(O[P@@](=O)(CO[C@H](C)Cn2cnc3c(N)ncnc32)N[C@@H](C)C(=O)OC(C)C)cc1)NC(=O)OCc1ccccc1 | 16 | 16000 | – | – | –
CC(C)OC(=O)[C@H](C)N[P@@](=O)(CO[C@H](C)Cn1cnc2c(N)ncnc21)Oc1ccc(C[C@@H](NC(=O)OCc2ccccc2)C(=O)OC2CCCC2)cc1 | 0.33 | 15000 | 45500 | – | –
COC(=O)[C@H](Cc1ccc(O[P@@](=O)(CO[C@H](C)Cn2cnc3c(N)ncnc32)N[C@@H](C)C(=O)OC(C)C)cc1)NC(C)=O | 720 | > 50000 | – | 3.2 | > 50000
COC(=O)[C@H](Cc1ccc(O[P@](=O)(CO[C@H](C)Cn2cnc3c(N)ncnc32)N[C@@H](C)C(=O)OC(C)C)cc1)NC(=O)OCc1ccccc1 | 30 | 8500 | – | – | –
COCCOCCOCCOC(=O)[C@H](Cc1ccc(OP(=O)(CO[C@H](C)Cn2cnc3c(N)ncnc32)N[C@@H](C)C(=O)OC(C)C)cc1)NC(=O)OCc1ccccc1 (stereo partly specified) | 470 | > 50000 | – | – | –
CCC(CC)COC(=O)[C@H](Cc1ccc(O[P@@](=O)(CO[C@H](C)Cn2cnc3c(N)ncnc32)N[C@@H](C)C(=O)OC(C)C)cc1)NC(=O)OCc1ccccc1 | 50 | 38000 | – | – | –
CC(C)OC(=O)[C@H](C)NP(=O)(CO[C@H](C)Cn1cnc2c(N)ncnc21)Oc1ccc(C[C@@H](C(=O)OC2CCCC2)N(CCCc2ccccc2)Cc2ccccc2)cc1 (stereo partly specified) | – | – | – | 1.2 | > 50000
COC(=O)[C@H](Cc1ccc(O[P@@](=O)(CO[C@H](C)Cn2cnc3c(N)ncnc32)N[C@@H](C)C(=O)OC(C)C)cc1)NC(=O)c1ccccc1 | 84 | > 50000 | – | – | –
CCOC(=O)[C@H](Cc1ccc(O[P@@](=O)(CO[C@H](C)Cn2cnc3c(N)ncnc32)N[C@@H](C)C(=O)OC(C)C)cc1)NC(=O)OCc1ccccc1 | 3.3 | 11000 | – | – | –
COC(=O)[C@H](Cc1ccc(O[P@@](=O)(CO[C@H](C)Cn2cnc3c(N)ncnc32)N[C@@H](C)C(=O)OC(C)C)cc1)N1CCCC1 | 16 | 27000 | – | – | –
COC(=O)[C@H](Cc1ccc(O[P@](=O)(CO[C@H](C)Cn2cnc3c(N)ncnc32)N[C@@H](C)C(=O)OC(C)C)cc1)N1CCCC1 | 11 | 24000 | – | – | –
COC(=O)[C@H](Cc1ccc(OP(=O)(CO[C@H](C)Cn2cnc3c(N)ncnc32)N[C@@H](C)C(=O)OC(C)C)cc1)NC(=O)OCc1ccccc1 (stereo partly specified) | – | – | – | 0.6 | 15000
COC(=O)[C@H](Cc1ccc(O[P@](=O)(CO[C@H](C)Cn2cnc3c(N)ncnc32)N[C@@H](C)C(=O)OC(C)C)cc1)NC(C)=O | 2200 | > 50000 | – | 7.2 | > 50000
COC(=O)[C@H](Cc1ccc(O[P@@](=O)(CO[C@H](C)Cn2cnc3c(N)ncnc32)N[C@@H](C)C(=O)OC(C)C)cc1)N(C)C | 48 | 38000 | – | – | –
CC(C)OC(=O)[C@H](C)NP(=O)(CO[C@H](C)Cn1cnc2c(N)ncnc21)Oc1ccc(C[C@H](NC(=O)OCc2ccccc2)C(=O)OCc2ccccc2)cc1 (stereo partly specified) | 9 | 10000 | – | – | –
CC(C)CCOC(=O)[C@H](Cc1ccc(O[P@@](=O)(CO[C@H](C)Cn2cnc3c(N)ncnc32)N[C@@H](C)C(=O)OC(C)C)cc1)NC(=O)OCc1ccccc1 | 0.56 | 8000 | 14300 | – | –
CC(C)OC(=O)[C@H](C)N[P@](=O)(CO[C@H](C)Cn1cnc2c(N)ncnc21)Oc1ccc(C[C@H](NC(=O)OCc2ccccc2)C(=O)OC2CCCCC2)cc1 | 8.4 | 9100 | – | – | –
CC(C)OC(=O)[C@H](C)N[P@@](=O)(CO[C@H](C)Cn1cnc2c(N)ncnc21)Oc1ccc(C[C@H](NC(=O)OCc2ccccc2)C(=O)NC2CCCC2)cc1 | 10 | 17000 | – | – | –
CC(C)OC(=O)[C@H](C)NP(=O)(CO[C@H](C)Cn1cnc2c(N)ncnc21)Oc1ccc(C[C@H](NC(=O)OCc2ccccc2)C(=O)OCc2cccs2)cc1 (stereo partly specified) | 3.4 | 8200 | – | – | –
CC(C)OC(=O)[C@H](C)N[P@](=O)(CO[C@H](C)Cn1cnc2c(N)ncnc21)Oc1ccc(C[C@H](NC(=O)OCc2ccccc2)C(=O)NC2CCCC2)cc1 | 13 | 28000 | 2150 | – | –
COC(=O)[C@@H](N)Cc1ccc(O[P@](=O)(CO[C@H](C)Cn2cnc3c(N)ncnc32)N[C@@H](C)C(=O)OC(C)C)cc1 | 650 | > 50000 | – | – | –
